Tested on: Euschistus heros (Neotropical Brown Stink Bug)
Test: Euschistus heros (Neotropical Brown Stink Bug) contact/feeding activity on sprayed soybean plants
Type: in vivo
Settings: comparative example, mortality 5 days after infestation
Method: Euschistus heros (Neotropical Brown Stink Bug) (Contact/Feeding Activity)
2 week old soybean plants are sprayed in a turn table spray chamber with the diluted spray solutions. After drying, 2 soybean seeds are added and plants are infested with 10 N-2 nymphs of the neotropical brown stink bug Euschistus heros in plastic test boxes. Boxes are incubated in a climate chamber at 25° C. and 60% RH. Evaluation is done 5 days after infestation on mortality.

SMILES | Control/% (application rate 3.0 ppm) | Control/% (application rate 12.5 ppm) | Control/% (application rate 50 ppm)
O=C(NCC(F)(F)F)N1CCc2cc(C3=NOC(c4cc(Cl)cc(Cl)c4)(C(F)(F)F)C3)ccc21 (stereo not drawn) [Reference compound] | 0% | 0% | 5%
O=C(CC(F)(F)F)NC1CCc2cc(C3=NOC(c4cc(Cl)cc(Cl)c4)(C(F)(F)F)C3)ccc21 (stereo not drawn) [Compound of the invention] | 75% | 100% | 100%
